For this test, the target named is BCL2 (Homo sapiens, UniProt P10415). The experiment in a line: Biacore SPR solution inhibition assay of BCL-2 binding to peptide derivatized sensor surfaces. To be noted: SPR competition; 56 nM BCL2 pre-equilibrated with compound one hour; biotinylated BAK, BAD and NOXA peptide surfaces; 25° C. The gist of the method: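 Solution-competition SPR at 25 °C in HEPES pH 7.4 buffer with 1.25 mM DTT and 3% DMSO: compounds (6-point threefold series, 16 μM to 0.004 nM) pre-equilibrated 1 h with 56 nM BCL2, then injected over captured biotinylated BAK, BAD and NOXA peptide surfaces. Binding levels relative to BCL2-only controls gave % inhibition.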
(In general: Surface plasmon resonance follows binding to a sensor surface in real time, without labels.)

Drawing on US8809352B2, “Sulfonamides as inhibitors of Bcl-2 family proteins for the treatments of cancer” (Novartis AG, priority 2009, dated 2014), this text covers IC50 for 2 compounds.

pIC50: −log10 of the molar value.

BCL2, sequence (P10415 whole entry): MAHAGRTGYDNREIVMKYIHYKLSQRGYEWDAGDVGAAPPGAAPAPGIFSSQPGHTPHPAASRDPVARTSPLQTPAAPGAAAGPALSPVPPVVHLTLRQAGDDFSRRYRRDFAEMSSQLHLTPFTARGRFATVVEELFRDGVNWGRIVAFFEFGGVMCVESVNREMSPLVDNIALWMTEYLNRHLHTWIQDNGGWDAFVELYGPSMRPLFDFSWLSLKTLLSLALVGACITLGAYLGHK

Take `CN(C)CC[C@H](CSc1cc(Cl)cc(Cl)c1)Nc1ccc(S(=O)(=O)Nc2ncnc3c2CCN(C2CCN(Cc4ccccc4-c4ccc(Cl)cc4)CC2)C3)cc1S(=O)(=O)C(F)(F)F` [Example 41, (R)-N-(7-(1-((4′-chlorobiphenyl-2-yl)-methyl)piperidin-4-yl)-5,6,7,8-tetrahydropyrido[3,4-c]pyrimidin-4-yl)-4-(1-(3,5-dichlorophenylthio)-4-(dimethylamino)butan-2-ylamino)-3-(trifluoromethylsulfonyl)benzenesulfonamide]: the pIC50 is 6.59. For `CN(C)CC[C@H](CSc1ccccc1)Nc1ccc(S(=O)(=O)Nc2ncnc3c2CCN(C2CCN(Cc4ccccc4-c4ccc(Br)cc4)CC2)C3)cc1S(=O)(=O)C(F)(F)F` [Example 6, (R)-N-(7-(1-((4′-bromobiphenyl-2-yl)methyl)piperidin-4-yl)-5,6,7,8-tetrahydropyrido[3,4-d]pyrimidin-4-yl)-4-(4-(dimethylamino)-1-(phenylthio)butan-2-ylamino)-3-(trifluoromethylsulfonyl)benzenesulfonamide] the value was 7.72.

What is called pIC50 is the negative decadic logarithm of the IC50, by convention in mol/L.
